Measured values: ChEMBL document CHEMBL4402508, “Natural product-drug conjugates for modulation of TRPV1-expressing tumors” (Bioorg Med Chem, 2019)
Activity calls are given as the source filed them. No cut-off for these calls is given here.

Experiments:
[1] = system: PC-3; experiment: Cytotoxicity in […] expressing human PC3 cells assessed as reduction in cell viability at 200 uM incubated for 24 to 72 hrs by Cell-titer blue assay; type: functional, cell-based; conditions: TDE = time-dependent effect
[2] = molecular target: Transient receptor potential cation channel subfamily V member 1 (Homo sapiens) (UniProt Q8NER1); experiment: Agonist activity at TRPV1 (unknown origin) expressed in HEK-293 cells assessed as induction of calcium influx at 50 uM incubated for 48 hrs by Fura2-AM dye based calcium imaging assay; type: cell-based
Sequence of Transient receptor potential cation channel subfamily V member 1 (Homo sapiens) (Q8NER1 whole entry): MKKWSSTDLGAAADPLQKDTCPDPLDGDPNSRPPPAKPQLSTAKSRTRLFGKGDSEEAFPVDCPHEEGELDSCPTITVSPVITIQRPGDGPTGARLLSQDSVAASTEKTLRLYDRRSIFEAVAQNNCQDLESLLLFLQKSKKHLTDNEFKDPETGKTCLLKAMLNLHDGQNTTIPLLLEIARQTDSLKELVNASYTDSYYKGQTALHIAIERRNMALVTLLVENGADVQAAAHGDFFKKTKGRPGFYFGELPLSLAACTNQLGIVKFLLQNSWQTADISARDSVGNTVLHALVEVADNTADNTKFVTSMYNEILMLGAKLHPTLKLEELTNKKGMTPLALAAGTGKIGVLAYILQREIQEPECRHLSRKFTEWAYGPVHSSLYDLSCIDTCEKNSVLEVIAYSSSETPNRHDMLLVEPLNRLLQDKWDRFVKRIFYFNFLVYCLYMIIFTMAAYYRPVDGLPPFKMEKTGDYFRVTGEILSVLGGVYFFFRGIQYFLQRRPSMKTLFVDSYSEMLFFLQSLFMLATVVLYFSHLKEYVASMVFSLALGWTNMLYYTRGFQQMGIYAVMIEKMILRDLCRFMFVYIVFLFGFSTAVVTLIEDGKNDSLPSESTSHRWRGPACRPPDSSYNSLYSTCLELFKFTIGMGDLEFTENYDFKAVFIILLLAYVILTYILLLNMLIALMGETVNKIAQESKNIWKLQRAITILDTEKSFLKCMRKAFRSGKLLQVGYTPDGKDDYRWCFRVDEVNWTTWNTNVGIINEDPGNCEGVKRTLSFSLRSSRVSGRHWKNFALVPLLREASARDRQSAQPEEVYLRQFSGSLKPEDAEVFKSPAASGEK

[3] = molecular target: Transient receptor potential cation channel subfamily V member 1 (Homo sapiens) (UniProt Q8NER1); experiment: Agonist activity at TRPV1 (unknown origin) expressed in HEK-293 cells assessed as induction of calcium influx at 50 uM incubated for 48 hrs by Fura2-AM dye based calcium imaging assay relative to capsaicin; type: cell-based
[4] = Drug degradation in PBS assessed as hydrolysis of western conjugate region at 0.2 mM at 37 degC incubated up to 6 hrs by LC-MS analysis; type: physicochemical; conditions: buffer, 200 µM; for Drug degradation: TDE = time-dependent effect
[5] = molecular target: Transient receptor potential cation channel subfamily V member 1 (Homo sapiens) (UniProt Q8NER1); experiment: Binding affinity to TRPV1 in human U251 cells assessed as compound internalization by measuring compound localization in intracellular compartment at 20 uM incubated for 24 hrs by azide-488 fluorophore based in situ click reaction assay and confocal microscopy; type: cell-based
[6] = molecular target: Transient receptor potential cation channel subfamily V member 1 (Homo sapiens) (UniProt Q8NER1); experiment: Agonist activity at TRPV1 (unknown origin) expressed in HEK-293 cells assessed as induction of calcium influx at 5 uM incubated for 48 hrs by Fura2-AM dye based calcium imaging assay; type: cell-based

Cn1nnc2c(C(N)=O)ncn2c1=O
Activity [1]: Tde

COc1cc(CNC(=O)CCCCCCNC(=O)c2ncn3c(=O)n(C)nnc23)ccc1O
Activity [1]: Tde
Activity [2]: Active
Activity [3]: 40%
Drug degradation [4]: Tde

COc1cc(CNC(=O)CCCCNC(=O)c2ncn3c(=O)n(C)nnc23)ccc1O
Activity [1]: Tde
Activity [2]: Active
Activity [3]: 40%
Drug degradation [4]: Tde

COc1cc(CNC(=O)CCCC/C=C/C(C)C)ccc1O [CAPSAICIN]
Stability [4]: Stable

COc1cc(CNC(=O)CNC(=O)c2ncn3c(=O)n(C)nnc23)ccc1O
Activity [1]: Tde
Activity [2]: Active
Activity [3]: 40%
Drug degradation [4]: Tde

C#CCCCCCCCCC(=O)NCc1ccc(O)c(OC)c1
Activity [5]: Active
Activity [6]: Active
